What is called IC50 is the midpoint of a concentration-inhibition curve. By EC50 is commonly meant the concentration needed to bring the measured effect to its halfway point. The term CC50 denotes the concentration giving 50% cytotoxicity.

The values that follow come from ChEMBL document CHEMBL4382214, “Antileishmanial activity of new hybrid tetrahydroquinoline and quinoline derivatives with phosphorus substituents” (Eur J Med Chem, 2019).

Each structure is given as a SMILES string. Activity calls are given as the source filed them. The rule behind the calls is not given here.

The test system of data set [1] is Leishmania donovani. Description: Inhibition of Leishmania donovani Top1B expressed in Top1B deficient Saccharomyces cerevisiae EKY3 assessed as decrease in relaxation of supercoiled pSK DNA preincubated for 15 mins followed by DNA addition and measured after 2 to 16 mins by agarose gel electrophoresis.
Data set [2] in a line: Inhibition of Leishmania donovani Top1B expressed in Top1B deficient Saccharomyces cerevisiae EKY3 assessed as decrease in relaxation of supercoiled pSK DNA preincubated for 15 mins followed by DNA addition and measured after 5 mins by agarose gel electrophoresis.
Data set [3] concerns Leishmania infantum. Put plainly: Leishmanicidal activity against promastigote stage of iRFP expressing Leishmania infantum BCN150 assessed as decrease in parasite viability after 72 hrs by fluorescence assay. It is filed as functional, organism-based. The settings on record: BCN150, 72 h.
In data set [4] the test system is Leishmania infantum. Description: Leishmanicidal activity against amastigote stage of iRFP expressing Leishmania infantum BCN150 infected in BALB/c mouse splenocytes assessed as decrease in parasite viability by fluorescence assay. It is filed as functional, organism-based.
Data set [5] can be described thus: Cytotoxicity against BALB/c mouse splenocytes assessed as reduction in cell viability by alamar blue assay. The class given is cell-based, Splenocyte. On the technique in general: The colour change of resazurin is a common sign of viable cells or microbes.
The target in another data set is T1, DNA topoisomerase 1 (Homo sapiens, UniProt P11387).
T1 sequence (P11387 whole entry): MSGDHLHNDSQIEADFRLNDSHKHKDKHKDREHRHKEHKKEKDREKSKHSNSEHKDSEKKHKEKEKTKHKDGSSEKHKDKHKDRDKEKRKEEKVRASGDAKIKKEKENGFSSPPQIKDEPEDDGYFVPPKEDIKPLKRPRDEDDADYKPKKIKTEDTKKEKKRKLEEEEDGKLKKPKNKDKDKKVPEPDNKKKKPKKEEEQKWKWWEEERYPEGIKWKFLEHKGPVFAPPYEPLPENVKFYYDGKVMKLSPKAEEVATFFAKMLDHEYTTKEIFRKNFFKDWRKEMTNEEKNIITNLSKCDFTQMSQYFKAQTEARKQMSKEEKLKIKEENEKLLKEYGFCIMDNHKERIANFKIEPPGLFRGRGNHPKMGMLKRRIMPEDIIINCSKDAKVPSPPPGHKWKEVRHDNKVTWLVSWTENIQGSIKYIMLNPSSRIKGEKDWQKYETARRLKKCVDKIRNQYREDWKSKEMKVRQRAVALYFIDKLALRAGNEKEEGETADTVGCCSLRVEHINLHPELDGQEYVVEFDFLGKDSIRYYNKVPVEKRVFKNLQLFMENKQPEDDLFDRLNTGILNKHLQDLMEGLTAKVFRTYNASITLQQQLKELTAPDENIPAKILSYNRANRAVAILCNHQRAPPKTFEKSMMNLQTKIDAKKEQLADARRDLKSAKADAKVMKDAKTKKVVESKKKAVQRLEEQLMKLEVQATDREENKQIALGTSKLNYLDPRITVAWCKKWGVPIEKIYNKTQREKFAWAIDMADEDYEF
Put plainly: Inhibition of human Top1B expressed in Top1B deficient Saccharomyces cerevisiae EKY3 assessed as decrease in relaxation of supercoiled pSK DNA preincubated for 15 mins followed by DNA addition and measured after 5 mins by agarose gel electrophoresis.

The test system of data set [6] is Leishmania donovani. Description: Inhibition of Leishmania donovani Top1B expressed in Top1B deficient Saccharomyces cerevisiae EKY3 assessed as decrease in relaxation of supercoiled pSK DNA preincubated for 15 mins followed by DNA addition and measured after 8 to 16 mins by agarose gel electrophoresis.
The target in data set [7] is T2, DNA topoisomerase 1 (Homo sapiens) (UniProt P11387).
T2 sequence (whole entry): T1 sequence (P11387 whole entry)
Put plainly: Inhibition of human Top1B expressed in Top1B deficient Saccharomyces cerevisiae EKY3 assessed as decrease in relaxation of supercoiled pSK DNA preincubated for 15 mins followed by DNA addition and measured after 8 to 16 mins by agarose gel electrophoresis.

The target of data set [8] is T2, DNA topoisomerase 1 (Homo sapiens). Put plainly: Inhibition of human Top1B expressed in Top1B deficient Saccharomyces cerevisiae EKY3 assessed as decrease in relaxation of supercoiled pSK DNA preincubated for 15 mins followed by DNA addition and measured after 2 to 4 mins by agarose gel electrophoresis.
Data set [9] deals with Leishmania donovani. Put plainly: Inhibition of Leishmania donovani Top1B expressed in Top1B deficient Saccharomyces cerevisiae EKY3 assessed as decrease in relaxation of supercoiled pSK DNA preincubated for 15 mins followed by DNA addition and measured after 2 to 4 mins by agarose gel electrophoresis.
The nature of data set [10]: Selectivity index, ratio of CC50 for BALB/c mouse splenocytes to EC50 for amastigote stage of iRFP expressing Leishmania infantum BCN150 infected in BALB/c mouse splenocytes. It is filed as toxicity, cell-based. The settings on record: read-out: Ratio CC50/EC50.
Data set [11] concerns the target T2, DNA topoisomerase 1 (Homo sapiens). Put plainly: Inhibition of human Top1B expressed in Top1B deficient Saccharomyces cerevisiae EKY3 assessed as decrease in relaxation of supercoiled pSK DNA preincubated for 15 mins followed by DNA addition and measured after 2 to 16 mins by agarose gel electrophoresis.
The subject of data set [12] is Leishmania donovani. Description: Inhibition of Leishmania donovani Top1B expressed in Top1B deficient Saccharomyces cerevisiae EKY3 assessed as decrease in relaxation of supercoiled pSK DNA preincubated for 15 mins followed by DNA addition and measured after 2 mins by agarose gel electrophoresis.
Data set [13] has as its system Leishmania donovani. Put plainly: Inhibition of Leishmania donovani Top1B expressed in Top1B deficient Saccharomyces cerevisiae EKY3 assessed as decrease in relaxation of supercoiled pSK DNA preincubated for 15 mins followed by DNA addition and measured after 4 to 16 mins by agarose gel electrophoresis.

Consider `Fc1ccc(-c2cc(-c3ccc(F)cc3)c3cccc(P(=S)(c4ccccc4)c4ccccc4)c3n2)cc1`, for which the inhibition result in the data set with Leishmania donovani [1] was “inactive”. For the same compound, the IC50 entry (in [2]; on DNA topoisomerase 1) was “Not Active” each time. In addition, the EC50 with Leishmania infantum [3] is 11 µM; in the data set on Leishmania infantum [4] it was above 10 µM. For the same compound, the 50% cytotoxic concentration (CC50) in [5] was determined as 92.1 µM.
On to `Fc1ccc(-c2cc(-c3ccc(C(F)(F)F)cc3)nc3c(P(=S)(c4ccccc4)c4ccccc4)cccc23)cc1`, for which the IC50 in data set [2] (read-out: IC50) is 34.3 µM; on DNA topoisomerase 1 (read-out: IC50) it was 27.4 µM. In addition, the inhibition result (in the data set with Leishmania donovani [6]; in [7]) was “inactive” in each case. Besides, the half-maximal effective concentration (EC50) is 8.83 µM in the data set with Leishmania infantum [3] and above 10 µM in the data set with Leishmania infantum [4]. Further, the inhibition result (in data set [8]; with Leishmania donovani [9]) was “Active” in each case. The CC50 in [5] came to 89.7 µM.
`O=P(c1ccccc1)(c1ccccc1)c1cccc2c(-c3ccc(F)cc3)cc(-c3ccccc3)nc12`: in the data set with Leishmania donovani [1], the inhibition entry was “inactive”. Also, the IC50 result (in [2]; at DNA topoisomerase 1) was “Not Active” each time. For the same compound, the values for the half-maximal effective concentration (EC50) in the data set on Leishmania infantum [3] and in the data set with Leishmania infantum [4] were 6.01 µM and 1.39 µM, respectively. In addition, in data set [10], the selectivity ratio stood at 51.1. Besides, the cytotoxic concentration (CC50) in data set [5] was 71 µM.
Turning to `O=P(c1ccccc1)(c1ccccc1)c1cccc2c(-c3ccccc3)cc(-c3ccc4ccccc4c3)nc12`, in the data set on Leishmania donovani [1], the inhibition entry was “inactive”. Also, the half-maximal inhibitory concentration (IC50) entry (in data set [2]; on DNA topoisomerase 1) was “Not Active” in each case. The figures for the EC50 with Leishmania infantum [3] and in the data set on Leishmania infantum [4] were 4.91 µM and 4.14 µM, respectively. Further, the selectivity ratio in [10] amounted to 13.8. In addition, in data set [5], the half-maximal cytotoxic concentration (CC50) amounted to 57.1 µM.
As to `Cc1ccc([C@H]2C[C@@H](c3ccc(F)cc3)Nc3c2cccc3P(c2ccccc2)c2ccccc2)cc1` (relative stereo), the inhibition result (in the data set with Leishmania donovani [1]; in [11]) was “Active” throughout. Moreover, the IC50 in data set [2] (read-out: IC50) is 47.9 µM; at DNA topoisomerase 1 (read-out: IC50), 44.8 µM. In addition, the EC50 worked out at 20.9 µM with Leishmania infantum [3] and 1.79 µM in the data set on Leishmania infantum [4]. Moreover, the selectivity ratio in data set [10] was found to be 26.2. For the same compound, the CC50 in data set [5] was determined as 47 µM.
As to `COc1ccc([C@@H]2C[C@H](c3ccc(C)cc3)c3cccc(P(c4ccccc4)c4ccccc4)c3N2)cc1` (relative stereo), the inhibition entry (in the data set on Leishmania donovani [1]; in [11]) was “Active” in each case. Besides, the IC50 in [2] (read-out: IC50) was determined as 23.6 µM; on DNA topoisomerase 1 (read-out: IC50), 84.6 µM. The half-maximal effective concentration (EC50) was found to be 27.7 µM in the data set with Leishmania infantum [3] and 5.96 µM in the data set on Leishmania infantum [4]. Besides, the selectivity ratio in data set [10] is above 8.4. Besides, in data set [5], the half-maximal cytotoxic concentration (CC50) is above 50 µM.
Consider `COc1ccccc1[C@@H]1C[C@H](c2ccccc2)c2cccc(P(=O)(c3ccccc3)c3ccccc3)c2N1` (relative stereo), for which, in the data set with Leishmania donovani [1], the inhibition entry was “inactive”. In addition, the IC50 entry (in [2]; at DNA topoisomerase 1) was “Not Active” throughout. The concentration giving a half-maximal response (EC50) was determined as 9.39 µM in the data set on Leishmania infantum [3] and 0.98 µM with Leishmania infantum [4]. Also, the selectivity ratio in [10] worked out at 34.9. Besides, in data set [5], the CC50 was 34.2 µM.
As for `COc1ccc([C@@H]2C[C@H](c3ccccc3)c3cccc(P(=S)(c4ccccc4)c4ccccc4)c3N2)cc1` (relative stereo), the IC50 in data set [2] (read-out: IC50) was 93.7 µM; on DNA topoisomerase 1, “Not Active”. In addition, the inhibition result in the data set on Leishmania donovani [6] is “inactive”. Besides, the half-maximal effective concentration (EC50) worked out at 10.7 µM in the data set on Leishmania infantum [3] and 0.61 µM in the data set on Leishmania infantum [4]. For the same compound, the selectivity ratio in data set [10] is 56.9. Further, in data set [5], the 50% cytotoxic concentration (CC50) is 34.7 µM. For the same compound, in the data set with Leishmania donovani [9], the inhibition entry was “Active”.
In the case of `O=[N+]([O-])c1ccc([C@@H]2C[C@H](c3ccccc3)c3cccc(P(=S)(c4ccccc4)c4ccccc4)c3N2)cc1` (relative stereo), the inhibition result in the data set on Leishmania donovani [1] is “inactive”. For the same compound, the IC50 result (in [2]; at DNA topoisomerase 1) was “Not Active” each time. In addition, the EC50 came out at 36.4 µM in the data set with Leishmania infantum [3] and 2.73 µM with Leishmania infantum [4]. In addition, the selectivity ratio in [10] was 20.9. For the same compound, the CC50 in data set [5] is 57 µM.
Consider `O=P(c1ccccc1)(c1ccccc1)c1cccc2c1N[C@H](c1ccc(F)c(F)c1)C[C@@H]2c1ccc(F)cc1` (relative stereo), for which the inhibition entry in the data set with Leishmania donovani [1] was “inactive”. Moreover, the IC50 result (in [2]; on DNA topoisomerase 1) was “Not Active” in each case. Also, the 50% effective concentration (EC50) in the data set with Leishmania infantum [3] was found to be 6.15 µM; in the data set with Leishmania infantum [4], 1.46 µM. For the same compound, the selectivity ratio in data set [10] is 43.6. Besides, in [5], the CC50 is 63.7 µM.
On to `Cc1ccc([C@H]2C[C@@H](c3ccc(F)cc3)Nc3c2cccc3P(=O)(c2ccccc2)c2ccccc2)cc1` (relative stereo), for which, in the data set with Leishmania donovani [1], the inhibition entry was “inactive”. Further, the IC50 result (in data set [2]; at DNA topoisomerase 1) was “Not Active” in each case. The results for the concentration giving a half-maximal response (EC50) in the data set on Leishmania infantum [3] and in the data set with Leishmania infantum [4] were 7.1 µM and 1.85 µM, respectively. Besides, in data set [10], the selectivity ratio was found to be 7.47. The CC50 in data set [5] was 13.8 µM.
Turning to `Fc1ccc([C@H]2C[C@@H](c3ccccc3)Nc3c2cccc3P(c2ccccc2)c2ccccc2)cc1` (relative stereo), the inhibition entry (with Leishmania donovani [1]; in [11]) was “Active” throughout. Besides, the half-maximal inhibitory concentration (IC50) in data set [2] (read-out: IC50) was found to be 54.2 µM; at DNA topoisomerase 1 (read-out: IC50) it was 42.2 µM. For the same compound, the EC50 stood at 3.14 µM in the data set on Leishmania infantum [3] and 1.75 µM with Leishmania infantum [4]. Moreover, the selectivity ratio in [10] was 51.8. Besides, in [5], the CC50 stood at 90.6 µM.
Turning to `C[C@@H]1[C@H](O)[C@@H](C)/C=C/C=C/C=C/C=C/C=C/C=C/C=C/[C@H](O[C@@H]2O[C@H](C)[C@@H](O)[C@H](N)[C@@H]2O)C[C@@H]2O[C@](O)(C[C@@H](O)C[C@@H](O)[C@H](O)CC[C@@H](O)C[C@@H](O)CC(=O)O[C@H]1C)C[C@H](O)[C@H]2C(=O)O` [AMPHOTERICIN B], the EC50 in the data set on Leishmania infantum [3] was found to be 0.77 µM; in the data set on Leishmania infantum [4], 0.32 µM. Further, the selectivity ratio in [10] stood at 62.5. In addition, the CC50 in [5] is above 20 µM.
Consider `CC[C@@]1(O)C(=O)OCc2c1cc1n(c2=O)Cc2cc3ccccc3nc2-1` [CAMPTOTHECIN], for which the 50% inhibitory concentration (IC50) result (in [2]; on DNA topoisomerase 1) was “Not Active” each time. Further, in the data set with Leishmania donovani [12], the inhibition result was “Active”. The inhibition result in the data set with Leishmania donovani [13] was “inactive”.
